Laboratory results as given in ChEMBL document CHEMBL5150023, “The Pursuit of Enzyme Activation: A Snapshot of the Gold Rush” (J Med Chem, 2022).
Values belong to the compound of their own block, whether it stands above or below them.

What was measured:
[1] = target: T1, Serine/threonine-protein kinase ULK1 (Homo sapiens) (UniProt O75385); experiment: Agonist activity at ULK1 (unknown origin) expressed in HEK293T cells at 100 nM incubated for 60 mins by ADP-Glo luminescence assay relative to control; format: cell-based; details: filed as agonist
T1 sequence (whole entry): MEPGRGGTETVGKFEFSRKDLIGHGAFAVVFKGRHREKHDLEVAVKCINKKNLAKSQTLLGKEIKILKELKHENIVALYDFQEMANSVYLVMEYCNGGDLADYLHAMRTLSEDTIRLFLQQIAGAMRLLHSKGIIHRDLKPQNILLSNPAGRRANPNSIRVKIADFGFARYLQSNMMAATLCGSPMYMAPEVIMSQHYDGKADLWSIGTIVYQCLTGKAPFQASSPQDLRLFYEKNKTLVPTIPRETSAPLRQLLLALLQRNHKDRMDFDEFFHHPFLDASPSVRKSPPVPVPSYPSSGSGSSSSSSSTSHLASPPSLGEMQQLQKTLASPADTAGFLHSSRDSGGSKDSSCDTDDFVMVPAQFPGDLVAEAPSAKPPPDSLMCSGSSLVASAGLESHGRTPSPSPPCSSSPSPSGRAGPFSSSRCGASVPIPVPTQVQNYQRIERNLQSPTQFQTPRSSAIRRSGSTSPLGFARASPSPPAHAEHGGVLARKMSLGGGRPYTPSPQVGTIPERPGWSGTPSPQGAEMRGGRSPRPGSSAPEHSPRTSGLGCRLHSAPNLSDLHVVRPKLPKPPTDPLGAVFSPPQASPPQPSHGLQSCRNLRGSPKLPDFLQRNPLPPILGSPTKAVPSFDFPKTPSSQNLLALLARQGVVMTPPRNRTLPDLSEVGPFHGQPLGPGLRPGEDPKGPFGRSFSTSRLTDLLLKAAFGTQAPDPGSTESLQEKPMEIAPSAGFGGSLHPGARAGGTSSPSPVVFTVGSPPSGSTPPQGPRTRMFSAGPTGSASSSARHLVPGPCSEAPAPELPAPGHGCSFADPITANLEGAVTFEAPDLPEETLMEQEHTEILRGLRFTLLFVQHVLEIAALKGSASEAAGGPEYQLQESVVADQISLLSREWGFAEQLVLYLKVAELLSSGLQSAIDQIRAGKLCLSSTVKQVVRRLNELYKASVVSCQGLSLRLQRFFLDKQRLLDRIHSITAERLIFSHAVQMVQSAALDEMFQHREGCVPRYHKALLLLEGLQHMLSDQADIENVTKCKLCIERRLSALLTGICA

[2] = Activation of human G6PD canton (R459L) mutant assessed as restoration of activity using G6P as substrate incubated for 3 hrs d by substrate addition and mesured after 2.5 mins by diaphorase-coupled enzyme assay
Homo sapiens = species: Homo sapiens; experiment: Activation of human G6PD canton (R459L) mutant assessed as restoration of activity using G6P as substrate incubated for 3 hrs d by substrate addition and mesured after 2.5 mins by diaphorase-coupled enzyme assay relative to wild type G6PD activity percentage
[3] = target: T2, NAD-dependent protein deacetylase sirtuin-1 (Homo sapiens) (UniProt Q96EB6); experiment: Activation of human N-terminal hexa-histidine tagged SIRT1 expressed in Escherichia coli BL21 (DE3) using peptide substrate by fluorescence polarization assay; details: filed as activator
T2 sequence (whole entry): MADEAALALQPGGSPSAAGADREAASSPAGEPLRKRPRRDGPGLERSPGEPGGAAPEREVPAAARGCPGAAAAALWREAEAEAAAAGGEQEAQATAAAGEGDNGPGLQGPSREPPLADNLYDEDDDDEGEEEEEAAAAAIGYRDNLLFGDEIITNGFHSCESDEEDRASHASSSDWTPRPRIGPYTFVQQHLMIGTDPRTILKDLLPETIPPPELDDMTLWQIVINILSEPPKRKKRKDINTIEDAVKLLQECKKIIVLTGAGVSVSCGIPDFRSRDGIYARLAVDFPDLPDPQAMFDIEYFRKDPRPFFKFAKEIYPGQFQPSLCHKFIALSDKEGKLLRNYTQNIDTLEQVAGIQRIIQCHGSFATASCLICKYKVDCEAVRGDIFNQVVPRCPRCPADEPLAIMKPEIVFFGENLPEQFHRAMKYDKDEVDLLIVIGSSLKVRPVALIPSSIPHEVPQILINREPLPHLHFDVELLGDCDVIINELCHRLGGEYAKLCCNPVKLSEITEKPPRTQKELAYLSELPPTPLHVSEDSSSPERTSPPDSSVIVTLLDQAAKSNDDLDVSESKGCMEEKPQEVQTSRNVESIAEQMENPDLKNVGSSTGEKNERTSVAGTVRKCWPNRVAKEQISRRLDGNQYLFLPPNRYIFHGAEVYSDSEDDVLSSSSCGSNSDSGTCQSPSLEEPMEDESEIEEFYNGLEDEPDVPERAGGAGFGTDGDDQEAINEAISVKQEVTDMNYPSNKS

[4] = target: T2, NAD-dependent protein deacetylase sirtuin-1 (Homo sapiens); experiment: Activation of human N-terminal hexa-histidine tagged SIRT1 expressed in Escherichia coli BL21 (DE3) using peptide substrate by fluorescence polarization assay relative to control; details: filed as activator

Activity [1]: 243%
SMILES: CC(C)CN(CC(=O)N1CCN(CC(OCc2ccc3ccccc3c2)c2ccc(Cl)cc2Cl)CC1)CC(C)C (stereo unspecified)

EC50 [2]: 3000 nM | Activity (Homo sapiens): 30%
SMILES: c1ccc2c(CCNCCSSCCNCCc3c[nH]c4ccccc34)c[nH]c2c1

EC1.5 [3]: 0.16 µM | Emax [4]: 781%
SMILES: O=C(Nc1ccccc1-c1cn2c(CN3CCNCC3)csc2n1)c1cnc2ccccc2n1

Emax [4]: 201%
SMILES: Oc1ccc(/C=C/c2cc(O)cc(O)c2)cc1
